For one assay, the target named is GFP^2—MBP—RLuc2 (Escherichia coli, UniProt P0AEX9). Put plainly: BRET^2 tagged MBP sugar assay, plate reader. The class given is binding. The protocol: 1 μM purified protein was used for all the energy transfer assays (final volume of 100 μL). […] Purified protein was incubated with the sugar dissolved in double deionised water or water for 30 minutes at 28° C.
(§1) BRET ratios were calculated as the ratio of maximum acceptor emission intensity to maximum donor emission intensity.
All data analysis was carried out using GraphPad Prism (version 5 for Windows, Graphpad Software, San Diego, Calif., USA). All data will be reported as means± standard deviation (SD) unless otherwise stated in the text. Two-tailed unpaired t-tests will be performed using Graphpad prism. Statistical significance is defined as p<0.05.
Background: In BRET a luciferase serves as donor, and the signal depends on an acceptor being close.

The next assay deals with GFP^2—MBP—RLuc2 W140A. Put plainly: BRET^2 tagged MBP W140A mutant, plate reader. It is filed as binding. The settings on record: 0.1 mM maltose. On the procedure: The W140 mutation was introduced into pRSET GFP^2—MBP—RLuc2 using site-directed mutagenesis (Stratagene) using primers C1 ([…]) (SEQ ID NO:11) and C2 ([…]) (SEQ ID NO:12). Nucleotide and amino acid sequences for BRET^2 tagged MBP receptor provided a SEQ ID NOs: 3 to 6).
1 μM purified protein was used for all the energy transfer assays (final volume of 100 μL). 1 μM purified protein was prepared by diluting the protein in phosphate buffer solution (PBS, 0.058 M […], 0.017 NaH2PO4, 0.068 M NaCl (pH 7.4)). Purified protein was incubated with the sugar dissolved in double deionised water or water for 30 minutes at 28° C. Following incubation 16.67 μM coelenterazine 400a was added and the signal was recorded immediately.
as §1

The target in assay [1] is T1, FLIPmal-2μ (FRET tagged MBP receptor) (Escherichia coli, UniProt P0AEX9).
T1 construct: fused on or other part: FRET pair fused to the N- and C-terminus of MBP; From Fehr et al. 2002 these are a cyan and a yellow GFP variant
The note with it: cited from earlier work.

Assay [2] relates to OGOR2 (ODR-10 receptor fused to RLuc2 and GFP^2). Put plainly: Diacetyl assay with OGOR2, 96-well plate BRET^2. It is filed as biochemical, C. elegans. From the text: (§2) Chimaeric BRET^2 tagged odorant receptors have the BRET^2 components inserted into the third intracellular loop (IC3) and at the C-terminus of the C. elegans odorant receptor with green fluorescent protein, GFP^2 at IC3 and Renilla luciferase, RLuc at the C-terminus of the protein (OGOR). Using site-directed mutagenesis the RLuc2 mutations were introduced into the pYES-DEST-52 OGOR sequence. Primers 1 and 2 (Table 3) were used to introduce the mutation C124A and primer pair 3 and 4 was used to introduce the M185 V mutation to make the construct named OGOR2 (FIG. 18, SEQ ID NO:1, SEQ ID NO-2).
Yeast colonies were inoculated in 10 mL SCMM-U (S. cerevisiae minimal media, composition per 200 mL: 1.34 g […] without amino acids and 0.38 g yeast supplementation media without uracil) supplemented with 2% glucose and incubated overnight at 28° C. An aliquot of the overnight culture was used to inoculate SCMM-U supplemented with 2% raffinose and 2% galactose to a final O.D..600 of 0.4 and incubated for an additional 72 h at 15° C. with shaking at 200 rpm.
Cell cultures were centrifuged at 1500×g for 5 minutes at 4° C. Cells were resuspended in 1 mL of sterile water and centrifuged for 1 minute at 10,000×g. Cells were resuspended in 4 mL phosphate buffer solution (PBS). The cells were lysed by French press (˜18000 psi) and cellular debris was removed by centrifugation at 15000×g (4° C.) for 15 minutes. Following this the supernatant fraction was centrifuged at 40,000 rpm (Beckman Coulter L-80 ultra-centrifuge) for 1 hour at 4° C. The supernatant was decanted and the membrane pellet was resuspended in 1 mL of PBS and stored at 4° C. for 48 hrs.
All ligand solutions were prepared directly in water. The OGOR concentration was normalized using GFP^2 intensity at 510 nm. Assays were carried out in 96-well plates (Perkin-Elmer) in a total volume of 100 μL in phosphate buffered saline. OGOR was incubated with each ligand for 45 minutes at 28° C. in wells sealed with Topseal-A™ (Packard). […]
BRET^2 signals were calculated as the ratio of emission intensity at 515 nm to that at 410 nm. […]

The subject of a further assay is OGOR. Put plainly: Diacetyl assay with original OGOR sensor (native RLuc), microwell. It is filed as biochemical, C. elegans. The note with it: original OGOR sensor incorporating native RLuc.
Description: as §2
All ligand solutions were prepared directly in water. The OGOR concentration was normalized using GFP^2 intensity at 510 nm. Assays were carried out in 96-well plates (Perkin-Elmer) in a total volume of 100 μL in phosphate buffered saline. OGOR was incubated with each ligand for 45 minutes at 28° C. in wells sealed with Topseal-A™ (Packard).
Following the incubation, Coelenterazine 400a substrate (Biosynth) was added to a final concentration of 5 μM.
BRET^2 signals were calculated as the ratio of emission intensity at 515 nm to that at 410 nm. All data are reported as the mean±standard deviation (SD) or mean±standard error of the mean (SEM) as described in the text. […]

The test system of assay [3] is OGOR2. Put plainly: Endpoint on-chip microfluidic diacetyl assay with OGOR2. The class given is biochemical, C. elegans. On the procedure: Endpoint microfluidic assays were carried out on-chip in two inlet microfluidic mixer devices integrated with an optical detection chamber. […] OGOR and OGOR2 membrane pellets were resuspended in 1 mL of PBS, diluted as required and incubated at 28° C. for 45 minutes with diacetyl solution at concentrations ranging from 1 aM-1 μM. The preparation was introduced in the second inlet. On-chip mixing was initiated with an input flow rate of 400 μl/hr for each inlet.
(§3) BRET^2 signals were calculated as the ratio of emission intensity at 515 nm to that at 410 nm. All data are reported as the mean±standard deviation (SD) or mean±standard error of the mean (SEM) as described in the text. Curves were fitted with log [agonist] vs response curves with variable slopes following normalization of data, using Graphpad Prism version 5.03 for Windows. Two-tailed unpaired t-tests were carried out in Graphpad prism. Statistical significance was defined as p<0.05.

Assay [4] relates to OGOR2. Put plainly: Real-time on-chip microfluidic diacetyl assay with OGOR2. It is filed as biochemical, C. elegans. The settings on record: 1 fM diacetyl, 290 nM protein, 12.5 μM substrate, flow rates 50, 100, 200 and 300 μl/hr. The protocol: On-chip real-time measurements were carried out in a three-inlet microfluidic mixer device integrated with an optical detection chamber. […] The second inlet contained diacetyl (2,3-butanedione) diluted to give a final concentration of 1 fM in PBS, or PBS only as a control. The third inlet was used to introduce sensor protein suspension, which was prepared by resuspending the membrane pellet describe above in 1 mL of PBS and further diluting as required. The on-chip mixing was initiated by using input flow rates ranging from 50-400 μl/hr.
as §3

Assay [5] deals with OGOR2. Put plainly: Diacetyl detection with highly diluted OGOR2, wide bore chamber and liquid light guide. It is filed as biochemical, C. elegans. The note with it: 1 μM diacetyl. On the procedure: On-chip measurements were carried out with a microfluidic chip similar to that shown in FIG. 31A with two inlets, a passive mixing element and a detection chamber. An aluminium mirror was placed on top of the reaction chamber to enhance the BRET signal.
A number of variations were compared with the original set up (FIG. 31A). The diameter of the reaction chamber was increased to 4 mm (FIG. 34A) from an original diameter of 2 mm. The height of the reaction chamber was varied between 1 and 2 mm. A single optical fiber of diameter 0.4-1.0 mm (FIG. 31A) was replaced with a liquid light guide or fibre-optic bundle of 5 mm core diameter NA=0.59, feeding into a dichroic block (FIG. 34A), or a bifurcated light guide of trunk core diameter 6 mm branch core diameter of 4 mm (FIG. 37) or a multifurcated light guide of trunk core diameter 8 mm and branch core diameter 4 mm (FIGS. 38 and 40).
OGOR2 sensor solution was prepared at day 4 in PBS at high (100 and 50 times) dilution ratios from stock solution. Clz400a was prepared in PBS at 31.25 μM. When diacetyl was included, it was added to the OGOR2 sensor solution at a final concentration of 1 μM. For the control experiment, only DI water was added. The sensor tubes without and with diacetyl were both incubated at 28° C. in 30 min.

Assay [6] has as its system SGSR-114/113 (BRET^2 tagged str-114/113 chimera). Put plainly: BRET^2 response of SGSR-114/113 to volatile ligands, plate based. It is filed as biochemical, C. elegans. The settings on record: in vitro. From the text:
SGSRs are chimaeras of C. elegans str-112, str-113, str-114, str-115, str-116 and str-114/113 with the BRET^2 tags GFP^2 and RLuc or RLuc2 inserted in the third intracellular loop and at the C-terminus, respectively. The positions of the third intracellular loops of STR proteins were predicted using “TMAP” an algorithm from “The Biology Workbench” (a web-based tool for prediction of transmembrane segments http.//seqtool.sdsc.edu). These were named SGSR-112, SGSR-113, SGSR-114/113, SGSR-114, SGSR-115 and SGSR-116.
Except for SGSR-112, which was commercially synthesised, SGSR expression cassettes were designed and made by introducing multiple restriction sites into the relevant gene-specific PCR primers. PCR products containing those sites were cloned into TOPO PCR vectors (Invitrogen) and then digested with the corresponding restriction enzymes (REs) and ligated into the expression cassettes.
The SGSR 114/113 chimera was constructed by modifying C. elegans SGSR-113 (by replacing the first fragment of str-13, 113-1 using the restriction sites NcoI and BspEI in the cassette with the corresponding fragment of str-114, str-114-1). Str114-1 contains the first 720 str-114 nucleotides of, corresponding to its first 240 amino acids and was amplified by high fidelity PCR using primers incorporating the restriction sites, NcoI at the 5′ end and BspEI at the 3′ end.
The inventors selected a number of specific volatiles (including 1-hexanol, 1 butanol, butane-2,3-dione, 3-hydroxybutanone, 2-pentanone and 2 nonanone) for further testing based on GC-MS analysis of the headspace of OP50 bacteria grown on LB. […] This is the first time that a volatile ligand (or indeed any ligand) has been identified for a BRET-based GPCR sensor, in the absence of prior knowledge of the ligand based on research with the unmodified parental GPCR.

In assay [7] the target is GMR sensor (GFP^2—MBP—RLUC2) (Escherichia coli, UniProt P0AEX9). The note with it: 0.1 mM sugar.
Description: On-chip measurements were carried out with microfluidic mixers with two inlets, a passive micromixer and an integrated optical detection chamber. BRET^2 measurements were recorded by using two photo multiplier tubes one equipped with an RLuc/Clz400a emission filter (410 nm bandpass 80 nm) and the other with a GFP^2 emission filter (515 nm bandpass 30m). The optical emission was collected by using an optical fiber with 1 mm core diameter aligned with on-chip optical detection chamber through a dichroic mirror.
The preparation was then mixed on-chip with 5 μM coelenterazine 400a and the optical signal was recorded from the detection chamber. The control experiments was carried out by incubating protein preparations with water and mixing on the chip under the same conditions.
Sensitivity assays were carried out on a two input microfluidic mixing device (FIG. 8b) with a serpentine common channel of L=18 mm. The BRET reaction chamber was Ø=4 mm and H=1 mm with no mirror. A bifurcated light guide was used with a 6 mm trunk and NA=0.59. […] The incubated sample and 31.25 μM Clz400a substrate were each pumped onto the chip at input flow rates of 400 μl/hr. The trunk end of the light guide was used to collect signal from the BRET reaction chamber. […] The BRET^2 signal was measured at each concentration. […]

The source of these data is patent US11385234B2, “Methods and systems for detecting an analyte or classifying a sample” (Commonwealth Scientific and Industrial Research Organisation, priority 2012, dated 2022).

Regarding `OC[C@H]1O[C@H](O[C@H]2[C@H](O)[C@@H](O)C(O)O[C@@H]2CO)[C@H](O)[C@@H](O)[C@@H]1O` (mixture of isomers) [maltose], the “incubation time at which BRET^2 response reached a maximum” value on GFP^2—MBP—RLuc2 (0.1 mM maltose) was 30 min. For the same molecule, the “BRET^2 response to maltose” value in the assay on GFP^2—MBP—RLuc2 W140A is listed as “abolished”. Moreover, the “signal change, FRET” value in [1] (Fehr et al., 2002) is given as approximately 12%. Further, the “linear range of FRET response” value in assay [1] (two log units) is 0.26 to 21.12 µM.

Consider `CC(=O)C(C)=O` [diacetyl, 2,3-butanedione], for which the “decrease in BRET^2 signal” value was 21.4% in [2] (1 μM diacetyl, microplate wells) and 36.9% with OGOR2 [3] (10 fM diacetyl, microfluidic endpoint). Further, the EC50 in [2] (microwell plate) is 11.4 aM; in the assay with OGOR2 [3] (on-chip microfluidic endpoint), approximately 10 aM. The “linear range of dose-dependent response” value in [2] (microwell plate, six log units) is 10^−18 to 10^−12 M. Moreover, the “percentage change in BRET^2 signal in response to diacetyl” value with OGOR is recorded as 32%. Also, the “decrease in BRET^2 ratio” value in the assay on OGOR2 [4] is on record as 27.4%. For the same molecule, the “Diacetyl-dependent reduction in BRET^2 ratio” value in the assay with OGOR2 [5] (50 times sensor dilution) amounted to 14.7%; in the assay on OGOR2 [5] (100 times sensor dilution), 13.7%. In addition, the detectable level result in assay [6] is recorded as “parts per quadrillion (sub pM) levels”.

For the molecule `OC[C@H]1O[C@@](CO)(O[C@H]2O[C@H](CO)[C@@H](O)[C@H](O)[C@H]2O)[C@@H](O)[C@@H]1O` [sucrose], the “response of BRET biosensor to sugar” value on GFP^2—MBP—RLuc2 (0.1 mM sugar, 30 minutes at 28° C., 1 μM protein) is “did not respond”. Also, the “increase in BRET^2 ratio over no sugar control, on chip” value in assay [7] was 15%.
